For one data set, the system named is HCV. In words: Anti-HCV activity in Huh-Luc/neo cell line, luciferase activity after 3-day treatment. The conditions noted are these: Hepatitis C virus, 72 h, Huh-Luc/neo cells, 3 days; for EC50: given as a bound only, read-out: Antiviral Activities (EC50, μM) HCV. The data set is classed as cell-based, Hepatitis C virus. On the procedure:
(§1) The antiviral assays for HBV, (Doong et al., 1991, Proc. Natl. Acad. Sci. U.S.A. 88:8495-8499) HSV-1, (Bastow et al., 1983, Antimicrob. Agents Chemother. 23: 914-917) HSV-2, (Bastow et al., 1983, Antimicrob. Agents Chemother. 23:914-917) EBV, (Yao et al., 1993, Antimicrob. Agents Chemother. 37:1420-1425), CMV (Andreoni et al., 2002, J. Med. Virol. 67:33-40) and HIV (Mellors et al., 1992, Mol. Pharmacol. 41: 446-451) were performed according to the previously reported procedures. Anti-HCV activities were tested in Huh-Luc/neo cell line. Cells were seeded into 48-well plates and grown until confluent. Different concentrations of drugs were added into media (DMEM, 10% dFBS) and incubated for 3 days. At the end of 3-day treatment, medium were removed and 50 μl of Passive lysis buffer (Promega) were added. Cell lysate was shaken at room temperature for 15 min. 30 μl/well of cell lysate was transferred to another 96-well plate, 100 μl/well of luciferase activity assay substrate was added into plate and read by a luminometer (Amersham) immediately.

Data set [1] in a line: Cell cytotoxicity assay on CEM cells. The conditions noted are these: human, read-out: Cytotoxity (ID50, μM) CEM. The data set is classed as cell-based. Here is the method: (§2) Cytotoxicities of test compounds on MT-2 (Mellors et al., 1992 Mol. Pharmacol. 41:446-451) and CEM (Grove et al., 1995, Cancer Res. 55:3008-3011) cells were determined according to the previously reported procedures. Hepg2 cells were seeded at a density of 10^4 cells/ml/well in 24-well plates and cultured in MEME supplemented with 10% FBS at 37° C. and 5% CO2. Each test compound at different concentrations was added on the second day of the culture and the cells were incubated for another 3 days. At the end of the incubation period, the medium was removed and 0.5 ml of 0.5% methylene blue in 50% ethanol (v/v) was added to each well and set at room temperature for 30-60 minutes. The methylene blue was removed; the plates were washed with water and allowed to air dry. Once dry, 1% sarcosyl was added to dissolve the stained cell layer. The absorbance at 595 nm was measured with a microplate reader (Molecular Devices Corp. Sunnyvale, Calif.). The cytotoxicity to CEM cell was calculated as described previously (Grove et al., 1995, Cancer Res. 55 (14): 3008-3011).

In another data set the test system is HBV. In words: In vitro antiviral assay for HBV (Table 1). As to conditions: Hepatitis B virus, read-out: Antiviral Activities (EC50, μM) HBV. The data set is classed as cell-based, Hepatitis B virus. Here is the method:
as §1

For a further data set, the system named is HSV-2. In words: In vitro antiviral assay for HSV-2. The format is cell-based, Herpes Simplex Virus 2. As to conditions: Human alphaherpesvirus 2, read-out: Antiviral Activities (EC50, μM) HSV-2. Here is the method: as §1
A further data set has as its system HSV-1. Kind of data set: In vitro antiviral assay for HSV-1. The format is cell-based, Herpes Simplex Virus 1. The conditions noted are these: Human alphaherpesvirus 1, read-out: Antiviral Activities (EC50, μM) HSV-1. Here is the method:
as §1

Data set [2] in a line: Cell cytotoxicity assay on MT-2 cells. The data set is classed as cell-based. As to conditions: human, read-out: Cytotoxity (ID50, μM) MT-2. On the procedure:
as §2

The test system of another data set is HIV. Kind of data set: In vitro antiviral assay for HIV. The format is cell-based, human immunodeficiency virus. The conditions noted are these: Human immunodeficiency virus 1, read-out: Antiviral Activities (EC50, μM) HIV, in vitro; (T) after a value means toxic. Here is the method: as §1
In the next data set the test system is EBV. In words: In vitro antiviral assay for EBV. The data set is classed as cell-based, Epstein-Barr Virus. As to conditions: human gammaherpesvirus 4, read-out: Antiviral Activities (EC50, μM) EBV. Here is the method:
as §1

The mark [3] stands for this setting: read-out: HCV percent of inhibition.

A word on the EC50: it is the midpoint of the concentration-response curve. Broadly, the melting point is the temperature of the solid-liquid transition. For the compound `O=C(O)c1cc2ccc3c(c2c(-c2ccc4c(c2)OCO4)c1COCc1ccccc1)OCO3` [Compound 5, 9-Benzo[1,3]dioxol-5-yl-8-benzyloxymethyl-naphtho[1,2-d][1,3]dioxole-7-carboxylic acid], the melting point lay within 219 to 221 °C. In addition, the EC50 with HCV is above 10 µM. In data set [1], the IC50 is above 50 µM. The EC50 in the data set with HBV was above 10 µM. The EC50 in the data set with HSV-2 was above 25 µM. Further, in the data set on HSV-1, the EC50 was above 25 µM. For the same compound, the IC50 in [2] is 48 µM. Further, the concentration giving a half-maximal response (EC50) in the data set with HIV is above 48 µM. Moreover, the EC50 in the data set on EBV is above 20 µM.
The term inhibition denotes the share of the control response that was lost under treatment. `CN1Cc2cc3ccc4c(c3c(-c3ccc5c(c3)OCO5)c2C1=O)OCO4` [Compound 17, 10-Benzo[1,3]dioxol-5-yl-8-methyl-7,8-dihydro-1,3-dioxa-8-aza-dicyclopenta[a,g]naphthalen-9-one]: the melting point lay within 242 to 244 °C. Moreover, the inhibition at 3 µM in the data set with HCV (at 3 μM, read-out: HCV percent of inhibition) is 29%. Also, the IC50 in data set [1] is 27 µM. In the data set on HBV, the EC50 was above 10 µM. Also, the EC50 in the data set on HSV-2 was 14 µM. In addition, in the data set with HSV-1, the EC50 amounted to 14 µM. In data set [2], the IC50 was 26 µM. The EC50 in the data set on HIV was above 26 µM. In addition, in the data set on EBV, the EC50 is above 20 µM.
The compound `CN1Cc2c(cc3ccc4c(c3c2-c2ccc3c(c2)OCO3)OCO4)C1=O` [Compound 19, 10-Benzo[1,3]dioxol-5-yl-8-methyl-8,9-dihydro-1,3-dioxa-8-aza-dicyclopenta[a,g]naphthalen-7-one] returned a melting point of 234 to 236 °C. In the data set on HCV, the EC50 is above 3 µM. Also, in data set [1], the IC50 came out at 6 µM. Moreover, in the data set on HBV, the EC50 was 1.6 µM. For the same compound, in the data set with HSV-2, the EC50 was found to be 1 µM. The EC50 in the data set on HSV-1 is 0.67 µM. The IC50 in data set [2] came out at 8 µM. Further, the EC50 with HIV was above 8 µM. Moreover, the concentration for a half-maximal effect (EC50) in the data set on EBV is above 20 µM.
Turning to `O=C1c2cc3ccc4c(c3c(-c3ccc5c(c3)OCO5)c2CN1CCCO)OCO4` [Compound 21, 10-Benzo[1,3]dioxol-5-yl-8-(3-hydroxy-propyl)-8,9-dihydro-1,3-dioxa-8-aza-dicyclopenta[a,g]naphthalen-7-one], the melting point was in the range of 213 to 215 °C. Further, the inhibition at 10 µM in the data set on HCV (setting [3]) turned out to be 58%. Moreover, the IC50 in [1] was determined as 22 µM. Moreover, the EC50 in the data set on HBV was above 20 µM. Moreover, the EC50 in the data set with HSV-2 worked out at 7 µM. Moreover, the EC50 with HSV-1 amounted to 5 µM. In addition, the IC50 in [2] was found to be 22 µM. Further, in the data set on HIV, the EC50 turned out to be 5 µM. Further, the EC50 in the data set with EBV is above 20 µM.
`COC1=NC(=O)c2c1cc1ccc3c(c1c2-c1ccc2c(c1)OCO2)OCO3` [Compound 23, 10-Benzo[1,3]dioxol-5-yl-7-methoxy-1,3-dioxa-8-aza-dicyclopenta[a,g]naphthalen-9-one] came in with a melting point of 306 to 308 °C.
In turn, `CC(=O)NN1C(=O)c2cc3ccc4c(c3c(-c3ccc5c(c3)OCO5)c2C1=O)OCO4` [Compound 25, N-(10-Benzo[1,3]dioxol-5-yl-7,9-dioxo-7,9-dihydro-1,3-dioxa-8-aza-dicyclopenta[a,g]naphthalen-8-yl)-acetamide] showed a melting point of 281 to 283 °C. In addition, in the data set with HCV, the EC50 is above 10 µM. The IC50 in data set [1] came to 93 µM. The EC50 in the data set on HBV is above 10 µM. Further, in the data set with HSV-2, the EC50 is above 40 µM. The EC50 in the data set with HSV-1 was above 40 µM. In data set [2], the IC50 is above 100 µM. Besides, in the data set with HIV, the EC50 is above 100 µM. For the same compound, the EC50 in the data set on EBV was above 20 µM.
On to `COC(=O)c1cc2ccc3c(c2c(-c2ccc4c(c2)OCO4)c1C(=O)OC)OCO3` [Compound 30, 9-Benzo[1,3]dioxol-5-yl-naphtho[1,2-d][1,3]dioxole-7,8-dicarboxylic acid dimethyl ester], for which the melting point lay within 157 to 159 °C. Moreover, the inhibition at 10 µM in the data set on HCV (setting [3]) came out at 93%. In addition, in data set [1], the IC50 worked out at 50 µM. The EC50 in the data set on HBV was above 20 µM. Also, the half-maximal effective concentration (EC50) in the data set on HSV-2 is above 50 µM. Further, the EC50 in the data set on HSV-1 is above 50 µM. Also, in data set [2], the IC50 is 28 µM. Further, in the data set on HIV, the EC50 was above 28 µM. For the same compound, the EC50 in the data set with EBV is above 20 µM.
Regarding `COC(=O)c1c(C(=O)O)cc2ccc3c(c2c1-c1ccc2c(c1)OCO2)OCO3` [Compound 31, 9-Benzo[1,3]dioxol-5-yl-naphtho[1,2-d][1,3]dioxole-7,8-dicarboxylic acid 8-methyl ester], the melting point lay in the range of 273 to 275 °C. For the same compound, the EC50 with HCV was above 10 µM. For the same compound, the IC50 in [1] came out at 74 µM. In the data set with HBV, the EC50 was above 20 µM. Besides, the EC50 in the data set on HSV-2 was above 50 µM. Moreover, the EC50 with HSV-1 was above 50 µM. The IC50 in data set [2] stood at 90 µM. In addition, the EC50 in the data set with HIV is above 90 µM. Also, in the data set on EBV, the EC50 is above 20 µM.
In the case of `O=C(O)c1cc2ccc3c(c2c(-c2ccc4c(c2)OCO4)c1C(=O)O)OCO3` [Compound 32, 9-Benzo[1,3]dioxol-5-yl-naphtho[1,2-d][1,3]dioxole-7,8-dicarboxylic acid], the melting point is 253 °C (dec.). For the same compound, the EC50 in the data set on HCV is above 10 µM. For the same compound, in data set [1], the IC50 was above 100 µM. In the data set with HBV, the EC50 is above 20 µM. In addition, the EC50 in the data set on HSV-2 was above 50 µM. In the data set on HSV-1, the EC50 was above 50 µM. In data set [2], the IC50 is above 100 µM. Also, in the data set with HIV, the EC50 was above 100 µM. Moreover, the EC50 with EBV is above 20 µM.
For `CCOC(=O)c1c(C(=O)OCC)c(-c2ccc3c(c2)OCO3)c2c3c(ccc2c1O)OCO3` [Compound 33, 9-Benzo[1,3]dioxol-5-yl-6-hydroxy-naphtho[1,2-d][1,3]dioxole-7,8-dicarboxylic acid diethyl ester], the melting point fell in the range of 192 to 194 °C. In addition, the inhibition at 10 µM in the data set on HCV (setting [3]) was 62%. Besides, the IC50 in data set [1] was 39 µM. Further, the EC50 in the data set on HBV is above 10 µM. The 50% effective concentration (EC50) in the data set with HSV-2 was above 50 µM. The EC50 with HSV-1 is above 50 µM. Further, the IC50 in data set [2] was 15 µM. For the same compound, the EC50 in the data set with HIV was above 15 µM. Besides, in the data set on EBV, the EC50 was above 10 µM.
Turning to `O=C1OCc2c1c(-c1ccc3c(c1)OCO3)c1c3c(ccc1c2O)OCO3` [Compound 34, 10-Benzo[1,3]dioxol-5-yl-6-hydroxy-7H-furo[3′,4′:6,7]naphtho[1,2-d][1,3]dioxol-9-one], the melting point was 257 °C (dec.). For the same compound, the concentration giving a half-maximal response (EC50) in the data set on HCV is above 10 µM. In data set [1], the IC50 came to 31 µM. Moreover, in the data set with HBV, the EC50 is above 10 µM. The EC50 in the data set with HSV-2 is 28 µM. Also, in the data set on HSV-1, the EC50 is 23 µM. In [2], the IC50 was determined as 13 µM. Also, the EC50 in the data set on HIV was above 13 µM. For the same compound, in the data set on EBV, the EC50 is above 10 µM.
Consider `CCOC(=O)c1c(C(=O)OCC)c(-c2ccc3c(c2)OCO3)c2c3c(ccc2c1OC)OCO3` [Compound 35, 9-Benzo[1,3]dioxol-5-yl-6-methoxy-naphtho[1,2-d][1,3]dioxole-7,8-dicarboxylic acid diethyl ester], for which the inhibition at 10 µM in the data set with HCV (setting [3]) was 60%. The IC50 in [1] was above 100 µM; in data set [2], 24 µM. Also, the EC50 with HBV is above 20 µM; in the data set with HSV-2 it was above 50 µM; in the data set on HSV-1 it was above 50 µM; with HIV it was above 24 µM; in the data set with EBV, above 20 µM.
In the case of `NC(=O)c1cc2ccc3c(c2c(-c2ccc4c(c2)OCO4)c1C(N)=O)OCO3` [Compound 36, 9-Benzo[1,3]dioxol-5-yl-naphtho[1,2-d][1,3]dioxole-7,8-dicarboxylic acid diamide], the EC50 in the data set on HCV is above 10 µM; in the data set with HBV, above 20 µM; in the data set on HSV-2 it was above 50 µM; in the data set with HSV-1, above 50 µM; in the data set with HIV, above 100 µM; in the data set on EBV, above 20 µM. The IC50 in data set [1] and in data set [2] was above 100 µM each time.

For the origin of these results see patent publication US7754718B2 (priority 2004, dated 2010).
